Test systems include DLD-1 colon; XF 498 CNS; 786-0 renal; OVCAR-4 ovarian; SK-MEL-28 melanoma; K-562 leukemia; M19-MEL melanoma; DMS 273 small cell lung; M14 melanoma; SR leukemia; LXFL 529 NSCLC; PC-3 prostate; BT-549 breast.
Common to all, as to test: NCI-60 cell line screen, 48 h

Where “and” joins values, the source holds several entries; their conditions need not be identical. Equal values may be shown once.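 Method: 48-hour compound exposure of cells in 96-well plates, five concentrations, linear interpolation of endpoints. GI50: concentration for 50% inhibition of growth. TGI: total growth inhibition.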

As to `Cc1cc(C)nc(NS(=O)(=O)c2ccc(Nc3c4ccccc4nc4c(C(=O)N5CCN(CCOS(C)(=O)=O)CC5)ccc(Cl)c34)cc2)n1`, the TGI in the assay with DLD-1 colon, in the assay with XF 498 CNS, in the assay on 786-0 renal, in the assay on OVCAR-4 ovarian, in the assay on SK-MEL-28 melanoma and in the assay on K-562 leukemia was above 100 µM each time. The TGI in the assay with M19-MEL melanoma, in the assay with DMS 273 small cell lung, in the assay on M14 melanoma and in the assay on SR leukemia was above 100 µM each time.

In the case of `O=C(c1ccccc1)[C@H]1Nc2cnccc2C2c3ccccc3CC21` (stereo not given in full), the TGI is above 80.7 µM in the assay with DLD-1 colon; 64.4 µM in the assay on XF 498 CNS; above 67 µM with 786-0 renal; above 76.9 µM in the assay with OVCAR-4 ovarian; 18.9 µM in the assay with SK-MEL-28 melanoma; 15.6 µM in the assay on K-562 leukemia. For the same molecule, the TGI is 23.8 µM in the assay on M19-MEL melanoma; 19.7 µM with LXFL 529 NSCLC; above 63.9 µM in the assay with DMS 273 small cell lung; 19.9 µM with M14 melanoma; 61.6 µM in the assay on SR leukemia.

For `COC(=O)/C(=N\NC(=S)NN)C(C(=O)C(=O)Nc1ccccc1C(N)=O)c1nc2ccccc2[nH]c1=O` (stereo not given), the TGI with XF 498 CNS, in the assay on 786-0 renal, in the assay with OVCAR-4 ovarian, in the assay with SK-MEL-28 melanoma, in the assay on K-562 leukemia and in the assay on M19-MEL melanoma was above 100 µM in each case. The TGI in the assay on LXFL 529 NSCLC, in the assay with DMS 273 small cell lung, in the assay with M14 melanoma and in the assay on SR leukemia was above 100 µM throughout.

As for `O=c1c2cc3c(=O)n(CCc4ccccc4CO)c(=O)c3cc2c(=O)n1CCc1ccccc1CO`, the TGI in the assay on DLD-1 colon, in the assay with XF 498 CNS, with OVCAR-4 ovarian, with SK-MEL-28 melanoma, in the assay with K-562 leukemia and with M19-MEL melanoma was above 100 µM throughout. In addition, the TGI in the assay on LXFL 529 NSCLC and in the assay with DMS 273 small cell lung was above 100 µM in each case.

On to `NC(CCSCC(F)F)C(=O)O` (stereo not given), for which the TGI with DLD-1 colon, with XF 498 CNS, with 786-0 renal, in the assay with OVCAR-4 ovarian, with SK-MEL-28 melanoma and in the assay with K-562 leukemia was above 100 µM each time. Besides, the TGI in the assay with M19-MEL melanoma, in the assay with LXFL 529 NSCLC, in the assay on DMS 273 small cell lung, in the assay on M14 melanoma and with SR leukemia was above 100 µM each time.

Regarding `N#CC(C#N)=Cc1cccc(Oc2ccccc2)c1`, the TGI is 51.9 µM in the assay on DLD-1 colon; 46.6 µM with XF 498 CNS; 34.2 µM with 786-0 renal; 20 µM in the assay with SK-MEL-28 melanoma; above 95.4 µM in the assay with K-562 leukemia; above 79 µM with M19-MEL melanoma. For the same molecule, the TGI with LXFL 529 NSCLC was found to be 41 µM; with DMS 273 small cell lung it was 36.1 µM; in the assay on M14 melanoma it was 40.4 µM; with SR leukemia, 61.3 µM.

In the case of `O=C(NN1C(=O)CSC1c1ccc(Cl)c(Cl)c1)c1ccncc1` (stereo not given), the TGI with DLD-1 colon, in the assay on XF 498 CNS, in the assay with OVCAR-4 ovarian, in the assay with SK-MEL-28 melanoma, in the assay on K-562 leukemia and in the assay with LXFL 529 NSCLC was above 100 µM in each case. Further, the TGI in the assay with DMS 273 small cell lung and in the assay with M14 melanoma was above 100 µM in each case.

As for `C=C1CC2C(=O)N(c3ccccc3)C(=O)C2CC1n1[nH]c(=O)n(Cc2ccccc2)c1=O` (stereo not given), the TGI in the assay on DLD-1 colon, in the assay with XF 498 CNS, in the assay with 786-0 renal, with OVCAR-4 ovarian, with SK-MEL-28 melanoma and in the assay on K-562 leukemia was above 100 µM each time. The TGI with M19-MEL melanoma, in the assay on LXFL 529 NSCLC, with DMS 273 small cell lung, in the assay on M14 melanoma and in the assay on SR leukemia was above 100 µM each time.

`COCC(=O)OC1CCn2c1nc1c2C(=O)C(C)=C(NC(C)=O)C1=O` (stereo not given): the GI50 was 3.56 µM with PC-3 prostate, 1.43 µM with OVCAR-4 ovarian, 3.23 µM with K-562 leukemia and 2.52 µM in the assay with SR leukemia. Further, the TGI in the assay with PC-3 prostate is 7.68 µM; with DLD-1 colon it was 28.8 µM; in the assay with XF 498 CNS it was 11.4 µM; in the assay with 786-0 renal, 18.4 µM; in the assay on BT-549 breast, 24.4 µM; with OVCAR-4 ovarian, 2.79 µM and 4.25 µM. In addition, the TGI with SK-MEL-28 melanoma is 28.6 µM; in the assay with K-562 leukemia, 11.9 µM; in the assay on M19-MEL melanoma it was 25.4 µM; in the assay on LXFL 529 NSCLC, 11.5 µM; in the assay with DMS 273 small cell lung, 33.6 µM; with M14 melanoma it was 21.7 µM. For the same molecule, the TGI with SR leukemia was 5.17 µM and 12.5 µM.

Consider `COC(=O)C(=O)C(C(=O)C(=O)Nc1cc([N+](=O)[O-])ccc1C#N)c1nc2ccccc2[nH]c1=O` (stereo not given), for which the TGI with DLD-1 colon, with XF 498 CNS, in the assay with 786-0 renal, in the assay with OVCAR-4 ovarian, in the assay with SK-MEL-28 melanoma and with M19-MEL melanoma was above 100 µM throughout. For the same molecule, the TGI in the assay with LXFL 529 NSCLC, in the assay on DMS 273 small cell lung, in the assay on M14 melanoma and with SR leukemia was above 100 µM each time.

Regarding `c1ccc([P+](Cc2csnn2)(c2ccccc2)c2ccccc2)cc1`, the TGI in the assay on DLD-1 colon, with XF 498 CNS, in the assay on OVCAR-4 ovarian, in the assay on SK-MEL-28 melanoma, in the assay on M19-MEL melanoma and with LXFL 529 NSCLC was above 100 µM each time. For the same molecule, the TGI in the assay with DMS 273 small cell lung, with M14 melanoma and in the assay with SR leukemia was above 100 µM in each case.

As for `CCC1(CC)C(=O)NC(=S)N=C1N`, the TGI with DLD-1 colon, in the assay with XF 498 CNS, in the assay with 786-0 renal, in the assay on OVCAR-4 ovarian, in the assay on SK-MEL-28 melanoma and in the assay on K-562 leukemia was above 100 µM throughout. In addition, the TGI in the assay on M19-MEL melanoma, with LXFL 529 NSCLC, in the assay with DMS 273 small cell lung and in the assay on M14 melanoma was above 100 µM throughout.

With `CCOC(=O)/C(=C/c1ccco1)P(=O)(OCC)OCC`, the TGI in the assay with DLD-1 colon, in the assay on XF 498 CNS, in the assay with 786-0 renal, with OVCAR-4 ovarian, in the assay on SK-MEL-28 melanoma and in the assay with K-562 leukemia was above 100 µM each time. Further, the TGI in the assay on M19-MEL melanoma, in the assay on LXFL 529 NSCLC, in the assay on M14 melanoma and in the assay with SR leukemia was above 100 µM each time.

These data come from PubChem BioAssay (NCI).
